Laboratory results taken from ChEMBL document CHEMBL4651402, “Screening of ~5500 FDA-approved drugs and clinical candidates for anti-SARS-CoV-2 activity” (2021).

Tested on: SARS-CoV-2
Test: microbe, parasite or virus in culture
Conditions: Severe acute respiratory syndrome coronavirus 2, Vero C1008, 48 h

Structure (SMILES) | IC50 [µM] | IC50 (read-out: pIC50 (converted)) [µM]
CNC(=O)c1c(I)c(C(=O)NCC(=O)Nc2c(I)c(C(=O)O)c(I)c(C(=O)NCCO)c2I)c(I)c(N(C)C(C)=O)c1I [IOXAGLIC ACID] | > 20 | > 20
Cc1nnc(C(=O)NC(C)(C)c2nc(C(=O)NCc3ccc(F)cc3)c(O)c(=O)n2C)o1 | > 20 | > 20
CCOc1cc2cc(C(=O)O)sc2cc1OCC [TIBENELAST] | > 20 | > 20
C[C@H](Oc1ccc2[nH]nc(/C=C/c3cnn(CCO)c3)c2c1)c1c(Cl)cncc1Cl | > 20 | > 20
NC(=O)OC[C@@H](N)Cc1ccccc1 | > 20 | > 20
CC12CCC3c4ccc(OS(=O)(=O)O)cc4CCC3C1CCC2O (stereo unspecified) | > 20 | > 20
CC1(C)O[C@@H]2C[C@H]3[C@@H]4CCC5=CC(=O)CC[C@]5(C)[C@@]4(F)[C@@H](O)C[C@]3(C)[C@]2(C(=O)CCl)O1 [HALCINONIDE] | > 20 | > 20
O=C1C2CC3CC1CC(O)(C3)C2 [IDRAMANTONE] | > 20 | > 20
C[C@@H]1CN(Cc2ccc(F)cc2)[C@@H](C)CN1C(=O)c1cc2c(C(=O)C(=O)N(C)C)cn(C)c2cc1Cl [TALMAPIMOD] | > 20 | > 20
Cn1c(=O)c2[nH]c(Br)nc2n(C)c1=O [PAMABROM] | > 20 | > 20
CC(=O)O[C@@H]1CC2(C)C(C(C)=O)CCC2C2CCC3=CC(=O)CCC3(C)C21 (stereo partly specified) | > 20 | > 20
NS(=O)(=O)c1cc2c(cc1Cl)NC(C(Cl)Cl)NS2(=O)=O (stereo unspecified) [TRICHLORMETHIAZIDE] | > 20 | > 20
NS(=O)(=O)c1ccc(C(=O)O)cc1 [CARZENIDE] | > 20 | > 20
OC(CCN1CCCCC1)(c1ccccc1)C1CCCC1 (stereo unspecified) [CYCRIMINE] | > 20 | > 20
CC(C)(C)C(=O)OCC(=O)[C@H]1CC[C@H]2[C@@H]3CCC4=CC(=O)CC[C@]4(C)[C@H]3CC[C@]12C [DESOXYCORTICOSTERONE PIVALATE] | > 20 | > 20
CCCCc1ccc2[nH]c(NC(=O)OC)nc2c1 [PARBENDAZOLE] | > 20 | > 20
CON(C)Cc1ccc(O)c2c1C[C@H]1C[C@H]3[C@H](N(C)C)C(O)=C(C(N)=O)C(=O)[C@@]3(O)C(O)=C1C2=O [SARECYCLINE] | > 20 | > 20
C[C@]12CC[C@@H]3c4ccc(O)cc4CC[C@H]3[C@@H]1CC[C@@H]2OC(=O)CCC1CCCC1 [ESTRADIOL CYPIONATE] | > 20 | > 20
O=C1CN=C(c2ccccc2Cl)c2cc(Cl)ccc2N1 [DELORAZEPAM] | > 20 | > 20
CNCC(O)c1ccc(O)c(OC)c1 (stereo unspecified) [METANEPHRINE] | > 20 | > 20
OC(CCCN1CCN(c2ncc(F)cn2)CC1)c1ccc(F)cc1 (stereo unspecified) [BMY-14802] | > 20 | > 20
CC(C=NNC(=N)N)=NNC(=N)N | > 20 | > 20
CCOc1cc(-c2nccc3cc(OC)c(OC)cc23)cc(OCC)c1OCC [OCTAVERINE] | > 20 | > 20
Cc1occc(=O)c1O [MALTOL] | > 20 | > 20
COc1cc(N)c(Cl)cc1C(=O)NC1CCN(Cc2ccccc2)CC1 [CLEBOPRIDE] | > 20 | > 20

Structure (SMILES) | IC50 [µM] | IC50 (read-out: pIC50 (converted)) [µM]
CC(c1cc2ccccc2s1)N(O)C(N)=O (stereo unspecified) [ZILEUTON] | > 20 | > 20
CCCCNc1ccc(C(=O)OCCOCCOCCOCCOCCOCCOCCOCCOCCOC)cc1 [BENZONATATE] | > 20 | > 20
Oc1cc2c(cc1O)[C@@H]1c3ccc(O)c(O)c3OC[C@]1(O)C2 [HEMATOXYLIN] | > 20 | > 20
CN(C)c1cc(NC(=O)CNC(C)(C)C)c(O)c2c1C[C@H]1C[C@H]3[C@H](N(C)C)C(O)=C(C(N)=O)C(=O)[C@@]3(O)C(O)=C1C2=O [TIGECYCLINE] | > 20 | > 20
Cc1cc(N2CCN([C@@H]3CN[C@H](C(=O)N4CCSC4)C3)CC2)n(-c2ccccc2)n1 [TENELIGLIPTIN] | > 20 | > 20
CN[C@H](Cc1ccccc1)C(=O)N1CCC[C@H]1C(=O)N[C@H](C=O)CCCNC(=N)N | > 20 | > 20
CC(=O)O[C@H]1C[C@@H]2CC[C@@H]3[C@H](CC[C@@]4(C)[C@H]3C[C@H]([N+]3(C)CCCCC3)[C@@H]4OC(C)=O)[C@@]2(C)C[C@@H]1[N+]1(C)CCCCC1 [PANCURONIUM] | > 20 | > 20
Nc1c(CC(=O)O)cccc1C(=O)c1ccccc1 [AMFENAC] | > 20 | > 20
CCN1CC(CCN2CCOCC2)C(c2ccccc2)(c2ccccc2)C1=O (stereo unspecified) [DOXAPRAM] | > 20 | > 20
CC(=O)NC[C@H]1CN(c2ccc(-c3ccc(CNCc4cnn[nH]4)cc3)c(F)c2)C(=O)O1 [RADEZOLID] | > 20 | > 20
NC1CC1c1ccccc1 (stereo unspecified) | > 20 | > 20
CCCCC(C)(O)C/C=C/C1C(O)CC(=O)C1CC/C=C/CCC(=O)OC (stereo unspecified) | > 20 | > 20
C#CCOC[C@@H]1CO[C@@](Cn2ccnc2)(c2ccc(Cl)cc2Cl)O1 | > 20 | > 20
CC12CCC3C(CCC4(O)CC(O)CCC34C=O)C1(O)CCC2C1=CC(=O)OC1 (stereo unspecified) | > 20 | > 20
Sc1ncnc2nc[nH]c12 [MERCAPTOPURINE ANHYDROUS] | > 20 | > 20
COc1cc2c3cc1Oc1cc(ccc1O)CC1c4c(cc(OC)c(O)c4Oc4ccc(cc4)CC3N(C)CC2)CC[N+]1(C)C (stereo unspecified) | > 20 | > 20
CC(C)=CCC1C(=O)N(c2ccccc2)N(c2ccccc2)C1=O [FEPRAZONE] | > 20 | > 20
CCCCNC(=N)NC(=N)N [BUFORMIN] | > 20 | > 20
Cc1nnnn1N=Cc1ccc(O)c(C(c2ccc(O)cc2)c2cc(C=Nn3nnnc3C)ccc2O)c1 (stereo unspecified) [VP-14637] | > 20 | > 20
CC(C)(N)Cc1ccc(Cl)cc1 [CHLORPHENTERMINE] | > 20 | > 20
NS(=O)(=O)Cc1noc2ccccc12 [ZONISAMIDE] | > 20 | > 20
Clc1ccccc1C(c1ccccc1)(c1ccccc1)n1ccnc1 [CLOTRIMAZOLE] | > 20 | > 20
Oc1ccc2c3c1O[C@H]1[C@@H](O)CC[C@@]4(O)C(C2)N(CC2CCC2)CCC314 (stereo partly specified) | > 20 | > 20
C[C@@H]1C[C@H]2[C@@H]3CCC4=CC(=O)C=C[C@]4(C)[C@@]3(Cl)[C@@H](O)C[C@]2(C)[C@@]1(OC(=O)c1ccco1)C(=O)CCl [MOMETASONE FUROATE] | > 20 | > 20
NC(COCc1ccccc1)C(=O)O (stereo unspecified) | > 20 | > 20

Structure (SMILES) | IC50 [µM] | IC50 (read-out: pIC50 (converted)) [µM]
CC(C)=CCC/C(C)=C/COc1ccc2ccc(=O)oc2c1 | > 20 | > 20
CCC(=O)OC1(c2ccccc2)CCN(C)CC1C (stereo unspecified) [ALPHAPRODINE] | > 20 | > 20
O=C(CCCl)NCc1ccccc1 [BECLAMIDE] | > 20 | > 20
C[C@@H]1C\C=C/C=C\C=C/C=C\[C@H](O[C@@H]2O[C@H](C)[C@@H](O)[C@H](N)[C@@H]2O)C[C@@H]2O[C@](O)(C[C@@H](O)C[C@H]3O[C@@H]3/C=C\C(=O)O1)C[C@H](O)[C@H]2C(=O)O | > 20 | > 20
Nc1nnc(-c2cccc(Cl)c2Cl)c(N)n1 [LAMOTRIGINE] | > 20 | > 20
CCC(=O)C1(c2cccc(O)c2)CCN(C)CC1 [KETOBEMIDONE] | > 20 | > 20
O=C(Nc1ccc(Cl)cc1)c1cc(Br)ccc1O [BROMOCHLOROSALICYLANILIDE] | > 20 | > 20
C[C@@H]1c2nnn(-c3ncc(F)cn3)c2CCN1C(=O)c1cccc(C(F)(F)F)c1Cl [JNJ-54175446] | > 20 | > 20
O=c1[nH]c(=O)n([C@H]2C[C@H](O)[C@@H](CO)O2)cc1/C=C/Br [BRIVUDINE] | > 20 | > 20
CC1(C)Oc2ccc(OC(F)(F)F)cc2[C@@H](N2Cc3ccccc3C2=O)C1O (stereo partly specified) | > 20 | > 20
CC(=O)NC(CCC(N)=O)C(=O)O (stereo unspecified) | > 20 | > 20
CCCc1nn(C)c2c(=O)[nH]c(-c3cc(S(=O)(=O)N4CCN(C)CC4)ccc3OCC)nc12 | > 20 | > 20
CC[N+]1(CC)CCC(OC(=O)C(O)(c2ccccc2)c2ccccc2)C1 (stereo unspecified) [BENZILONIUM] | > 20 | > 20
CCCCCCCCCCCCCCC1(C(=O)OC)CO1 (stereo unspecified) [METHYL PALMOXIRATE] | > 20 | > 20
CC(Cc1ccc(C(C)(C)C)cc1)CN1CCCCC1 (stereo unspecified) [FENPROPIDIN] | > 20 | > 20
O=C(O)Cn1c2c(c3cc(F)ccc31)CN(C(=O)c1cccc3ccccc13)CC2 [SETIPIPRANT] | > 20 | > 20
CC1CC[C@@]2(OC1)OC1CC3C4CC[C@H]5C[C@@H](O)CC[C@]5(C)C4C[C@@H](O)[C@]3(C)C1[C@@H]2C (stereo partly specified) | > 20 | > 20
COc1ccc(C2CNC(=O)C2)cc1OC1CCCC1 (stereo unspecified) [ROLIPRAM] | > 20 | > 20
c1cnc2c(c1)C[C@@]1(CN3CCC1CC3)O2 [AZD0328] | > 20 | > 20
CCn1cc(C(=O)O)c(=O)c2cnc(N3CCNCC3)nc21 [PIPEMIDIC ACID] | > 20 | > 20
Cc1ccccn1 | > 20 | > 20
COc1ccc2nc3cc(Cl)ccc3c(Nc3cc(CN4CCCC4)c(O)c(CN4CCCC4)c3)c2n1 [PYRONARIDINE] | > 20 | > 20
Cc1nc2ccccc2c(=O)n1-c1ccccc1Cl [MECLOQUALONE] | > 20 | > 20
